# Test results as given in patent US11155547B1, “Compounds for and methods of treating diseases” (Alterity Therapeutics Limited, priority 2020, dated 2021).
# Tested on: human neuroblastoma line BE(2)-M17 (M17) cells
# Test: Measurement of Fe efflux from cells (57Fe in media by ICP-MS)
# Format: cell-based
# Details: M17 cells pre-loaded with 57Fe, compound 20 μM, 2 h, Fe in media as percentage increase relative to cell media in the absence of the compound; for activation at 20 µM: Homo sapiens, read-out: % Fe Efflux Range
# Experimental: Compounds of the current invention were assessed for their ability to efflux iron (Fe) from a cell using the following protocol. The human neuroblastoma line BE(2)-M17 (M17) cell cultures were acquired from Sigma Aldrich (Catalogue #: 95011816). M17 cells were maintained in Opti-MEM reduced serum media supplemented with 10% fetal bovine serum (Bovogen, SFBSF) and passaged twice weekly. Cells were cultured at 37° C. in the presence of 5% CO2. Culture supplies were sourced from Thermo Fisher unless otherwise stated. A solution of ^57Fe isotope was prepared by dissolving ^57Fe metal (>95% enrichment, Trace Sciences International) in concentrated HCl to give a final concentration of 573 mM. From this master solution, a 10 mM working solution was prepared in sterile water. The working solution was used within two months of preparation. M17 cells were loaded with iron initially by seeding into 48-well plates at a density of 0.15×10^6 cells per well in 0.5 mL media. After 48 h, old media was discarded. Fresh media was added supplemented from the 10 mM ^57Fe working solution to yield media containing 20 μM ^57Fe isotope. Cells received 0.2 mL of this ^57Fe enriched media and were returned to the incubator for 20 h. The ability of experimental compounds to efflux iron was determined by the dissolution of compounds in DMSO and diluted in Hanks' Balanced Salt Solution (HBSS) for treatment of M17 cells. After ^57Fe incubation, cells were rinsed twice with HBSS and treated with 0.15 ml trial compound for 2 h. Experimental substances were routinely screened at a concentration of 20 μM, however dilutions ranging from 1-40 μM were occasionally applied to further elucidate the properties of key compounds. All assays included a relevant vehicle (0.4%-0.8% DMSO) as well as a positive control. Following the treatment period, 0.1 mL of media was collected from cells and the extracellular ^57Fe content was analysed via inductively coupled mass spectrometry (ICP-MS, Agilent 7700×series instrument). […] After 2 h the Fe levels in the media were measured and the increase determined as a percentage increase relative to the cell media in the absence of the compound. [formula] Representative data is provided in Table 1 where the % Fe efflux for the specified compounds of the invention lie in the following ranges: A<30%, B 30-100%, C 100-150%; D>150%
Compound,activation at 20 µM [%],% Fe Efflux Range
"Cc1ccc(O)c(-c2nc(-c3ccccc3O)n3c2CCCC3)n1 [Compound 1, 2-(3-(2-Hydroxyphenyl)-5,6,7,8-tetrahydroimidazo[1,5-a]pyridin-1-yl)-6-methylpyridin-3-ol]",> 150,–
"Cc1ccc(O)c(-c2nc(-c3cccc(F)c3O)n3c2CCCC3)n1 [Compound 2, 2-(3-(3-Fluoro-2-hydroxyphenyl)-5,6,7,8-tetrahydroimidazo[1,5-a]pyridin-1-yl)-6-methylpyridin-3-ol]",> 150,–
"Cc1ccc(O)c(-c2nc(-c3cc(F)ccc3O)n3c2CCCC3)n1 [Compound 3, 2-(3-(5-Fluoro-2-hydroxyphenyl)-5,6,7,8-tetrahydroimidazo[1,5-a]pyridin-1-yl)-6-methylpyridin-3-ol]",100 to 150,–
"Cc1ccc(O)c(-c2nc(-c3c(O)cccc3F)n3c2CCCC3)n1 [Compound 4, 2-(3-(2-Fluoro-6-hydroxyphenyl)-5,6,7,8-tetrahydroimidazo[1,5-a]pyridin-1-yl)-6-methylpyridin-3-ol]",30 to 100,–
"Cc1ccc(O)c(-c2nc(-c3nc(C)ccc3O)c3n2CCCC3)c1 [Compound 5, 2-(3-(2-Hydroxy-5-methylphenyl)-5,6,7,8-tetrahydroimidazo[1,5-a]pyridin-1-yl)-6-methylpyridin-3-ol]",> 150,–
"Cc1ccc(O)c(-c2nc(-c3cccc(C)c3O)n3c2CCCC3)n1 [Compound 6, 2-(3-(2-Hydroxy-3-methylphenyl)-5,6,7,8-tetrahydroimidazo[1,5-a]pyridin-1-yl)-6-methylpyridin-3-ol]",100 to 150,–
"Oc1ccccc1-c1nc(-c2ccccc2O)n2c1CCCC2 [Compound 7, 2,2′-(5,6,7,8-tetraHydroimidazo[1,5-a]pyridine-1,3-diyl)diphenol]",< 30,–
"Cc1ccc(O)c(-c2nc(-c3ccccc3O)c3n2CCCC3)c1 [Compound 8, 2-(1-(2-Hydroxyphenyl)-5,6,7,8-tetrahydroimidazo[1,5-a]pyridin-3-yl)-4-methylphenol]",< 30,–
"Oc1ccccc1-c1nc(-c2c(O)cccc2F)n2c1CCCC2 [Compound 9, 3-Fluoro-2-(1-(2-hydroxyphenyl)-5,6,7,8-tetrahydroimidazo[1,5-a]pyridin-3-yl)phenol]",< 30,–
"COC(=O)c1ccc(O)c(-c2nc(-c3ccccc3O)c3n2CCCC3)c1 [Compound 10, Methyl 4-hydroxy-3-(1-(2-hydroxyphenyl)-5,6,7,8-tetrahydroimidazo[1,5-a]pyridin-3-yl)benzoate]",30 to 100,–
"Oc1ccccc1-c1nc(-c2ccccn2)n2c1CCCC2 [Compound 11, 2-(3-(Pyridin-2-yl)-5,6,7,8-tetrahydroimidazo[1,5-a]pyridin-1-yl)phenol]",< 30,–
"Oc1ccccc1-c1nc(-c2cccc(CN3CCOCC3)c2O)n2c1CCCC2 [Compound 12, 2-(1-(2-Hydroxyphenyl)-5,6,7,8-tetrahydroimidazo[1,5-a]pyridin-3-yl)-6-(morpholinomethyl)phenol]",< 30,–
"Cc1ccc(O)c(-c2nc(-c3cccnc3O)c3n2CCCC3)c1 [Compound 13, 3-(3-(2-Hydroxy-5-methylphenyl)-5,6,7,8-tetrahydroimidazo[1,5-a]pyridine-1-yl)pyridine-2-ol]",100 to 150,–
"Oc1ncccc1-c1nc(-c2cccc(Cl)c2O)n2c1CCCC2 [Compound 14, 3-(3-(3-Chloro-2-hydroxyphenyl)-5,6,7,8-tetrahydroimidazo[1,5-a]pyridin-1-yl)pyridin-2-ol]",100 to 150,–
"Oc1ccccc1-c1nc(-c2cccnc2O)c2n1CCCC2 [Compound 15, 3-(3-(2-hydroxyphenyl)-5,6,7,8-tetrahydroimidazo[1,5-a]pyridin-1-yl)pyridin-2-ol]",100 to 150,–
"Oc1cnccc1-c1nc(-c2ccccc2O)n2c1CCCC2 [Compound 21, 4-(3-(2-Hydroxyphenyl)-5,6,7,8-tetrahydroimidazo[1,5-a]pyridin-1-yl)pyridin-3-ol]",–,D (D>150%)
"CCN(CC)CCc1cccc(-c2nc(-c3ccncc3O)c3n2CCCC3)c1O [Compound 22, 4-(3-(3-(2-(Diethylamino)ethyl)-2-hydroxyphenyl)-5,6,7,8-tetrahydroimidazo[1,5-a]pyridin-1-yl)pyridin-3-ol]",100 to 150,–
"Oc1ccncc1-c1nc(-c2ccccc2O)n2c1CCCC2 [Compound 29, 3-(3-(2-Hydroxyphenyl)-5,6,7,8-tetrahydroimidazo[1,5-a]pyridin-1-yl)pyridin-4-ol]",100 to 150,–
"Oc1ccncc1-c1nc(-c2cccc(F)c2O)n2c1CCCC2 [Compound 30, 3-(3-(3-Fluoro-2-hydroxyphenyl)-5,6,7,8-tetrahydroimidazo[1,5-a]pyridin-1-yl)pyridin-4-ol]",> 150,–
"Oc1ccccc1-c1nc(-c2ccccc2O)n2c1CCC(C(F)(F)F)C2 (stereo not drawn) [Compound 36, 2,2′-(6-(Trifluoromethyl)-5,6,7,8-tetrahydroimidazo[1,5-a]pyridine-1,3-diyl)diphenol]",< 30,–
"Cc1ccc(O)c(-c2nc(-c3ccccc3O)c3n2CC(C)CC3)c1 (stereo not drawn) [Compound 37, 2-(1-(2-Hydroxyphenyl)-6-methyl-5,6,7,8-tetrahydroimidazo[1,5-a]pyridin-3-yl)-4-methylphenol]",< 30,–
"Cc1ccc(O)c(-c2nc(-c3ccccc3O)c3n2CC(C(F)(F)F)CC3)c1 (stereo not drawn) [Compound 38, 2-(1-(2-Hydroxyphenyl)-6-(trifluoromethyl)-5,6,7,8-tetrahydroimidazo[1,5-a]pyridin-3-yl)-4-methylphenol]",< 30,–
"Cc1ccc(O)c(-c2nc(-c3ccccc3O)n3c2CCC3)n1 [Compound 50, 2-(3-(2-Hydroxyphenyl)-6,7-dihydro-5H-pyrrolo[1,2-c]imidazol-1-yl)-6-methylpyridin-3-ol]",> 150,–
"Cc1ccc(O)c(-c2nc(-c3cccc(F)c3O)n3c2CCC3)n1 [Compound 59, 2-(3-(3-Fluoro-2-hydroxyphenyl)-6,7-dihydro-5H-pyrrolo[1,2-c]imidazol-1-yl)-6-methylpyridin-3-ol]",> 150,–
